Results reported in US9216974B2, “Phenoxazine derivatives and methods of use thereof” (Washington University, priority 2010, dated 2015).
“Also recorded” adds a separate entry of the source. Like-named read-outs stand apart in the source and are kept apart here.

Experiments:
[1] = target: CAA (cerebrovascular Aβ deposits) (Homo sapiens, UniProt P05067); assay: In situ binding assay in fixed brain tissue, CAA; design: species or system Tg2576 mice
From the text: (§1) Tg2576 mice are a well characterized mouse model of AD and CAA. They develop congophilic Aβ aggregates within neuritic plaques and leptomeningeal and cortical penetrating arteries at 11 months of age (Hsiao et al., 1996; Kawarabayashi et al., 2001; Fryer et al., 2005; Han et al., 2008).
(§2) The Ki values for CAA vs. neuritic plaques will be calculated utilizing the fluorescent amyloid-ligand methoxy-X34 and fluorescent microscopic method. […] Tissue sections (3 sections per reaction) will be then mounted and coverslipped. Photographs of methoxy-X34 binding images will be taken using a Nikon fluorescent microscope. The fluorescent intensity on cerebral amyloid deposits and neuritic plaques will be separately quantified using Image J software. Finally, Ki values will be calculated by plotting % bound vs. log concentrations of competitors followed by non-linear regression using the Graph Pad Prism software. The maximum binding will be obtained from the methoxy-X34 intensity in the absence of competitors, while non-specific binding will be detected by the fluorescent intensity in brain tissues incubated without methoxy-X34.
In situ binding assay: Tg2576 mice or littermate controls at 15 months of age will be perfused with phosphatebuffered saline (PBS) for 5 min. Brains will be removed, fixed in 4% paraformaldehyde, and preserved in 30% glucose-PBS solution at 4° C. Brains will be coronally sectioned using a microtome and kept in cryoprotectant solution at −20° C. To label amyloid deposits, brain sections (3 sections per reaction) will be permeabilized with PBS containing 0.25% Triton X-100 for 20 min at room temperature, followed by incubation with 1 μM methoxy-X34 in the presence or absence of competitors at various concentrations (10-9-10-6 M). Sections will be subjected to fluorescent microscopy using a Nikon Eclipse C600 microscope. The fluorescent intensity of methoxy-X34 in vessels and neuritic plaques will be quantified using the ImageJ software. The binding affinity (Ki) will be calculated using the Graph Pad Prism software.

[2] = assay type: physicochemical
Experimental: Hydrophobicity affects drug absorption, bioavailability, hydrophobic drug-receptor interactions, metabolism of molecules, and their toxicity. […] The mixture will be incubated with agitation for 30 min until ionic and non-ionic forms of test compound reach equilibrium. Two layers will be separated by centrifugation. Test compound's concentrations in octanol and water layers will be determined by UV/VIS spectrophotometry. The log Poct value will be calculated from log (concentration in n-octanol fraction/concentration in water fraction). Experiments will be repeated at least 3 times with triplicated samples.

CAA = CAA (Homo sapiens, UniProt P05067); assay: Binding affinities for CAA performed on isolated vessels determined by fluorescent binding; conditions: for Ki: read-out: Binding affinity Ki; for Kd: read-out: Binding affinity KD
Experimental: The isolation of cerebral vessels for biochemical analysis will be performed as described (78, 98). […] After the cerebellum is removed, the brain will be homogenized in fivefold excess of vessel buffer. An equal volume of 26% dextran will be added, and the tissue will be centrifuged at 6200×g for 30 min at 4° C. The resulting vessels form a pellet, whereas the parenchymal “vessel-free” material forms a solid, compact disc at the top of the solution. The […] will be resuspended in vessel buffer and passed over a 40-μm nylon mesh to capture vessels. Vessel and parenchymal material will be lysed in 5 M guanidine, 50 mM Tris, pH 8, with protease inhibitor cocktail (Roche) for 3 hr.

[3] = tested on: cerebrovascular Aβ deposits; assay: In vivo live imaging of CAA amyloid deposits through closed cranial window; conditions: topical application through cranial window, resorufin 2 μM, 16-month-old Tg2576 mice
Experimental: FIG. 4 depicts in vivo live imaging of CAA amyloid deposits through closed cranial window. A,B. Closed cranial window was prepared on the right parietal bone of 16-month-old Tg2576 mice. Leptomeningeal arterioles (B) were subjected to live imaging using a fluorescent microscope. […] Scale bars: in C-E: 250 μm, in E: 100 μm.

CAA vs. neuritic plaques [4] = assay: Co-staining of fixed brain sections of Tg2576 mice with fluorescent amyloid dyes; assay type: binding; conditions: aged (16-month-old) Tg2576 mice
From the text: as §1

[5] = tested on: Aβ deposits in cerebral vessels; assay: Multi-photon microscopy of whole brains stained with resorufin and phalloidin; conditions: 16-month-old Tg2576 mice
CAA vs. neuritic plaques [6] = assay: Staining of paraffin-embedded cortical brain sections of a human AD patient (3D6 and resorufin); assay type: binding; conditions: 3D6 co-labeling
From the text: as §1

neuritic plaques = assay: In situ binding assay in fixed brain tissue, neuritic plaques; design: species or system Tg2576 mice; conditions: in situ binding assay at a concentration of 160 μM
From the text: as §1, §2
In situ binding assay: Tg2576 mice or littermate controls at 15 months of age will be perfused with phosphatebuffered saline (PBS) for 5 min. […] The fluorescent intensity of methoxy-X34 in vessels and neuritic plaques will be quantified using the ImageJ software. […]

[7] = normal mice, cited from earlier work
[8] = normal rats; cited from earlier work
[9] = literature value; cited from earlier work

CCOc1ccc2nc3ccc(=O)cc-3oc2c1 [Ethoxy-resorufin, 7-ethoxyresorufin]
selective binding affinity for CAA deposits [1]: low nanomolar range | Ki ([1]; preliminary studies, read-out: binding affinity (Ki) for cerebrovascular Aβ deposits): 247 nM | lipophilicity [2]: moderate lipophilicity

COc1ccc2nc3ccc(=O)cc-3oc2c1 [Methoxy-resorufin]
Ki (CAA): 4680 nM

O=c1ccc2nc3ccc(O)cc3oc-2c1 [Resorufin, resorufin]
fluorescent labeling of amyloid deposits in live mice [3]: selectively labeled amyloid deposits in arterioles | fluorescent labeling of amyloid deposits in live mice ([3]; listed as resorufin): marked fluorescent labeling within the walls of leptomeningeal arteries (but not in neuritic plaques); also recorded: visualized cerebrovascular Aβ deposits | staining of CAA vs. neuritic plaques (CAA vs. neuritic plaques [4]): CAA>>>neuritic plaques | staining of CAA vs. neuritic plaques (CAA vs. neuritic plaques [4]; listed as resorufin): selectively bound fibrillar amyloid-laden arterioles | intensity of resorufin staining by vessel type [5]: greater in pial arterioles than in penetrating arterioles or capillaries | staining of arterioles vs. neuritic plaques in human AD brain (CAA vs. neuritic plaques [6]): selectively labeled 3D6-immunoreactive amyloid deposits in arterioles but less likely neuritic plaques; also recorded: prominent in 3D6-positive cerebral arterioles but was rarely seen in 3D6-positive neuritic plaques | log Poct ([2]; 30 min): 0.427 | binding to neuritic plaques (neuritic plaques): negligible

C#COc1ccc2nc3ccc(=O)cc-3oc2c1 [WC-5-1]
Kd (CAA): 828 nM | Ki (CAA): 4610 nM

O=c1ccc2nc3ccc(OCCF)cc3oc-2c1 [WC-5-2]
Kd (CAA): 800 nM

O=c1ccc2nc3ccc(OCc4cn(CCF)nn4)cc3oc-2c1 [WC-5-3]
Kd (CAA): 2380 nM

COc1cccc(COc2ccc3nc4ccc(=O)cc-4oc3c2)c1 [WC-5-4]
Kd (CAA): 537 nM

COc1ccc(COc2ccc3nc4ccc(=O)cc-4oc3c2)cc1 [WC-5-5]
Ki (CAA): 218 nM

CC(=O)OCCOc1ccc2nc3ccc(=O)cc-3oc2c1 [WC-5-8]
Ki (CAA): 860 nM

O=c1ccc2nc3ccc(OCCBr)cc3oc-2c1 [WC-5-9]
Kd (CAA): 927 nM

O=c1ccc2nc3ccc(OCc4ccc(I)cc4)cc3oc-2c1 [WC-5-31]
Kd (CAA): > 10000 nM

COCCOc1ccc2nc3ccc(=O)cc-3oc2c1 [WC-5-42]
Ki (CAA): 347 nM

COCCOCCOc1ccc2nc3ccc(=O)cc-3oc2c1 [WC-5-43]
Ki (CAA): 407 nM

COc1ccc(OCCOc2ccc3nc4ccc(=O)cc-4oc3c2)cc1 [WC-5-45]
Ki (CAA): 421 nM

COc1ccc(OCCOCCOc2ccc3nc4ccc(=O)cc-4oc3c2)cc1 [WC-5-47]
Ki (CAA): > 10000 nM

[11CH3]Nc1ccc(-c2nc3ccc(O)cc3s2)cc1 [[^11C]PIB]
brain level ([7]; 2 min after injection): 3.2 % ID/g | brain level ([7]; 60 min): 0.21 % ID/g | fraction in the brain cleared ([7]; within 60 min): 93%

COc1cc(/C=C/c2ccc(O)cc2)ccc1/C=C/c1ccc(O)cc1 [methoxy-X04, reference compound]
fluorescent labeling of amyloid deposits in live mice [3]: staining was noted in both arterioles and senile plaques; also recorded: present in both cerebral arteries and parenchymal neuritic plaques | brain clearance estimated half life (t½) [8]: ~45 min | log Poct [9]: 2.6

COc1cc(C=Cc2ccc(O)c(C(=O)O)c2)ccc1C=Cc1ccc(O)c(C(=O)O)c1 [methoxy-X34, reference compound]
affinity for CAA vs. neuritic plaques ([1]; in situ binding assay): almost an equal affinity for both CAA and neuritic plaques | staining of CAA vs. neuritic plaques (CAA vs. neuritic plaques [4]): labeled amyloid deposited in both CAA and neuritic plaques; also recorded: visualized both CAA and neuritic plaques

methoxyphenyl-resorufin
selective binding affinity for CAA deposits [1]: low nanomolar range | lipophilicity [2]: moderate lipophilicity

phenyl-resorufin
selective binding affinity for CAA deposits [1]: low nanomolar range | lipophilicity [2]: moderate lipophilicity
